The source of these data is PMC8760490, “Discovery of novel furanylbenzamide inhibitors that target oncogenic tyrosine phosphatase SHP2 in leukemia cells” (The Journal of Biological Chemistry, 2021).

The IC50 is the point on the concentration scale where inhibition reaches its midpoint. A lower IC50 goes with higher potency.

The target in experiment [1] is T1, full-length SHP2-E76K oncogenic mutant (Homo sapiens, UniProt Q06124, E76K).
T1 construct: Recombinant human full-length SHP2 (1–594) WT and E76K mutants; made in house
T1 sequence (Q06124 1-593 E76K): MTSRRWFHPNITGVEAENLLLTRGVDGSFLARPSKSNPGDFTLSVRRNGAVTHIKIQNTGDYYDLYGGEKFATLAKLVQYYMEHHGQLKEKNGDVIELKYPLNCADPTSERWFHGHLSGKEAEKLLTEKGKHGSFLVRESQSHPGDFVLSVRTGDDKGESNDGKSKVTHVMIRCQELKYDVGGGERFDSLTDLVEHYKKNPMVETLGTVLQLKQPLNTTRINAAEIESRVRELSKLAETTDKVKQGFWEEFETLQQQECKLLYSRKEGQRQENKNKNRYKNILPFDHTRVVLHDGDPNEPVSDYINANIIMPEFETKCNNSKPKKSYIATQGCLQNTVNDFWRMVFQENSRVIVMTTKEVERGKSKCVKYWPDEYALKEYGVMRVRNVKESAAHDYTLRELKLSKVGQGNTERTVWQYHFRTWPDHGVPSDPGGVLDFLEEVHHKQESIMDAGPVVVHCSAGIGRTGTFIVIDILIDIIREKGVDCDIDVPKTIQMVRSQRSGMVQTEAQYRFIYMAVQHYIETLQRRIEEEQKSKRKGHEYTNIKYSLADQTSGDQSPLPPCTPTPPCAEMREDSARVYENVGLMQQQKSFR
Put plainly: DiFMUP fluorescence phosphatase inhibition assay, SHP2-E76K. Conditions: DiFMUP at Km (20 μM), 10-point dose–response, pH 6.0. Type of experiment: biochemical. From the text:
To test the synthesized compounds for their potential to inhibit SHP2 activity, a fluorescence intensity-based assay using 6,8-difluoro-4-methylumbelliferyl phosphate (DiFMUP) as the substrate was adapted for three recombinant SHP2 constructs: (1) the SHP2 catalytic domain (SHP2cat; residues 248–527), (2) the full-length SHP2-E76K oncogenic mutant, and (3) the full-length SHP2 WT (SHP2-WT). The recombinant SHP2 proteins were expressed and purified as described previously ([36]). A dually phosphorylated peptide derived from the insulin receptor substrate 1 (IRS-1) served as a surrogate binding protein and was used to activate SHP2-WT ([30], [36]). […] Michaelis–Menten experiments to determine the DiFMUP Michaelis–Menten constant (Km) for each SHP2 construct were performed as described previously ([36]) and yielded the following values: SHP2-WT, Km = 60 μM; SHP2-E76K, Km = 20 μM; and SHP2cat, Km = 20 μM. Relative maximum rates (Vmax) of the DiFMUP reactions expressed as relative fluorescence units per minute (RFU/min) were as follows: SHP2-WT, Vmax = 871 RFU/min; SHP2-E76K, Vmax = 2730 RFU/min; and SHP2cat, Vmax = 2912 RFU/min. IC50 values for each compound were determined from initial rates in 10-point dose–response assays using DiFMUP at a concentration corresponding to its Km value for the respective SHP2 construct. […] Replacements for the benzothiophenone were explored using analog #10.
Recombinant human full-length SHP2 (1–594) WT and E76K mutants, as well as the SHP2cat (248–527), were expressed and purified as described before ([36], [41]). Recombinant human PTP1B (1–300) and the codon-optimized STEP (280–566) catalytic domains were cloned into PET-15b and expressed as N-His-tagged fusion proteins. For expression, transformed BL21(DE3) cells were grown and induced similar as described for SHP2. Collected cells were resuspended in lysis buffer (25 mM Tris, pH 7.5, 300 mM NaCl, 50 mM imidazole, and 10% glycerol) with 100 mg/l RNaseA and were lysed with two passages using a microfluidizer. The lysate was clarified by centrifugation at 15,000g for 50 min and applied to nickel–nitrilotriacetic acid resin. The column resin was washed, and the PTP1B or STEP protein was eluted in lysis buffer at 300 mM imidazole. The PTP1B or STEP protein was further purified by S75 size-exclusion chromatography in 50 mM Tris, pH 7.5, 50 mM NaCl. The eluted peak fractions were supplemented with tris(2-carboxyethyl)phosphine to 10 mM, concentrated by ultrafiltration, and stored at −80 °C. The purified yield of PTP1B was 33 mg/l cell culture; the yield of STEP was 16 mg/l cell culture.
SHP2 inhibitors were tested at RT in a 384-well plate format standard phosphatase fluorescence intensity assay using DiFMUP (Invitrogen/Thermo Fisher Scientific) as a substrate and a total reaction volume of 25 μl. SHP2 inhibitors or vehicle (DMSO) were spotted in triplicate into a black Greiner FLUOTRAC 200 384-well microplate (catalog no.: 781076; Greiner) for a 10-point dose–response assay using an Echo 555 Liquid Handler (Labcyte, Inc). PTP working solutions were prepared at a 0.625 nM concentration (for a final concentration of 0.5 nM) in buffer containing 50 mM Bis–Tris, pH 6.0, 50 mM NaCl, 5 mM DTT, and 0.01% Tween-20. Prior to the assay, a dually phosphorylated IRS-1 peptide (625 nM [500 nM final] ([30])) was added to full-length WT SHP2 working solutions and incubated for 20 min. DiFMUP working solutions at 5× final concentration were prepared in 50 mM Bis–Tris, pH 6.0, 50 mM NaCl, and 0.01% Tween-20. About 20 μl of PTP working solution was dispensed into the microplate and incubated with inhibitor for 20 min at RT. […] The reaction was initiated by addition of 5 μl DiFMUP working solutions. Fluorescence intensity was measured in kinetic mode (every minute for 7 or 10 min) using a Tecan Spark Multimode Microplate Reader (Tecan) with an excitation wavelength of 360 nm and an emission wavelength of 460 nm. […]

Experiment [2] concerns KYSE-520 esophageal cancer cells. Briefly: Cell viability (CellTiter-Glo), KYSE-520. The class given is cell-based. Conditions: for effect on KYSE-520 cell growth: various concentrations, 3 days. As for the experimental part:
Inhibition of SHP2 has been reported to inhibit the growth of cancer cells including Kasumi-1 acute myeloid leukemia (AML) and KYSE-520 esophageal cancer cells ([30]). […] Thus, we treated two TNBC cell lines, BT-549 and MDA-MB-468, with SBI-4668 or the SHP2 allosteric inhibitor SHP099 at various concentrations and determined cell viability after 72 h, compared with the vehicle control (Fig. 4C). […] Next, we performed an 11-day colony formation assay with TNBC cells treated with SBI-4668 or SHP099 at 5, 10, or 20 μM (Fig. 4D).
Viability of AML and esophageal carcinoma cells was assessed using the ATP-depletion assay CellTiter-Glo (Promega). Cells were harvested at 1 × 10^6/ml to 2 × 10^6 cells/ml with cell numbers determined by trypan blue using the Countess Cell counter (Thermo Scientific) and resuspended in culture media. About 3000 cells (in 20 μl) were seeded in a 384-well format white and clear-bottom microplate (catalog no.: 781098; Greiner) spotted with test compound or vehicle control (DMSO) using an Echo 555 Liquid Handler. Cells were incubated for 3 days, before 10 μl of CellTiter-Glo reagent mix was added to each well and incubated for 10 min at RT. Luminescence was read on a Tecan Spark Multimode Microplate Reader, and data were analyzed using GraphPad Prism software.
(In general: In ATP-based viability assays light output follows the ATP content of the culture.)

`Nc1ccc(NC(=O)c2cc(-c3ccc(/C=C4\Sc5ccccc5C4=O)o3)ccc2O)cc1` [SBI-2130, (Z)-N-(4-Aminophenyl)-2-hydroxy-5-(5-((3-oxobenzo[b]thiophen-2(3H)-ylidene)methyl)furan-2-yl)benzamide] showed an IC50 in experiment [1] of 0.48 µM. Also, the “effect on KYSE-520 cell growth” value in experiment [2] was “dose-dependently inhibited cancer cell growth”.
Turning to `O=C1CCCC1=Cc1ccc(-c2ccc(O)c(C(=O)Nc3ccccc3)c2)o1` [SBI-3192, 2-Hydroxy-5-(5-((2-oxocyclopentylidene)methyl)furan-2-yl)-N-phenylbenzamide], the IC50 in experiment [1] was found to be 2.3 µM.
`N#Cc1cc(-c2ccc(/C=C3\Sc4ccccc4C3=O)o2)ccc1O` [SBI-3404, (Z)-2-Hydroxy-5-(5-((3-oxobenzo[b]thiophen-2(3H)-ylidene)methyl)furan-2-yl)benzonitrile]: in experiment [1], inhibition was half-maximal at 4.2 µM (IC50). In addition, the “effect on KYSE-520 cell growth” value in experiment [2] is “dose-dependently inhibited cancer cell growth”.
Regarding `O=C1/C(=C/c2ccc(-c3ccc(O)c(-c4nn[nH]n4)c3)o2)Sc2ccccc21` [SBI-3405, (Z)-2-((5-(4-Hydroxy-3-(2H-tetrazol-5-yl)phenyl)furan-2-yl)methylene)benzo[b]thiophen-3(2H)-one], the IC50 in experiment [1] turned out to be 4.1 µM.
Turning to `O=C(Nc1ccccc1)c1cc(-c2ccc(/C=C3\Sc4ccccc4C3=O)o2)ccc1O` [SBI-4668, (Z)-2-Hydroxy-5-(5-((3-oxobenzo[b]thiophen-2(3H)-ylidene)methyl)furan-2-yl)-N-phenylbenzamide], the half-maximal inhibitory concentration (IC50) in experiment [1] came out at 1.8 µM; in experiment [2] (Homo sapiens, KYSE-520, 72 h, 3 days in culture), 5.4 µM. Further, the “effect on KYSE-520 cell growth” value in experiment [2] is “dose-dependently inhibited cancer cell growth”.
